For data set [1], the system named is Propionibacterium acnes (ATCC 11827). Description: Antibacterial activity by agar well diffusion method (zone of inhibition). The data set is classed as cell-based. The conditions noted are these: P. acnes, 48 h anaerobic, inhibition detected in all tested concentrations (10-1.25 μg/mL). As to the method: In vitro anti-acne activity of isolated compounds 1 and 2 from the stem bark extract of Artocarpus hirsutus were evaluated against acne causing bacterium, Propionibacterium acnes. The antibacterial activity was determined by agar well diffusion method. The minimum inhibitory concentration (MIC) of the compounds were then ascertained by broth micro dilution method.
Microorganisms: Acne causing bacterium Propionibacterium acnes (ATCC 11827) was procured from American type culture collection Rockville, USA.
Media: Reinforced Clostridial Agar (Hi Media; M154) and Reinforced Clostridial broth (Hi Media; M443) were used in the experiments.
The antibacterial activities of isolated compounds were performed by agar well diffusion method. The samples were dissolved in DMSO to obtain a concentration in the range of 0.5-100 mg/mL. Propionibacterium acnes was cultured on Reinforced Clostridial Agar (RCA) M154 procured from Hi Media and incubated at 37° C. for 48 h in an anaerobic chamber providing gas mixture containing 80% nitrogen, 10% carbon dioxide and 10% hydrogen. The bacterial culture was suspended in sterile normal saline and adjusted to 1.0×10^8 CFU/mL (CLSI, M02-A11; Vol. 32 No. 1). The sterile RCA was seeded with the standardized culture of P. acnes and poured into plates. […] The diameter of zone of inhibition around the wells were measured and recorded.

The test system is the same in data set [2]. Description: Minimum inhibitory concentration by broth micro dilution method. The format is cell-based. The conditions noted are these: Cutibacterium acnes, ATCC11827, P. acnes, 37° C., 48 h, anaerobic. The protocol: In vitro anti-acne activity of isolated compounds 1 and 2 from the stem bark extract of Artocarpus hirsutus were evaluated against acne causing bacterium, Propionibacterium acnes. The antibacterial activity was determined by agar well diffusion method. The minimum inhibitory concentration (MIC) of the compounds were then ascertained by broth micro dilution method. Microorganisms: Acne causing bacterium Propionibacterium acnes (ATCC 11827) was procured from American type culture collection Rockville, USA. Media: Reinforced Clostridial Agar (Hi Media; […]) and Reinforced Clostridial broth (Hi Media; […]) were used in the experiments. The minimum inhibitory concentrations (MIC) of the isolated compounds against P. acnes were determined by broth micro dilution method. Two-fold dilutions of the isolated compounds were prepared in Reinforced Clostridial broth (RCB) to obtain concentrations in the range of 0.1-2000 μg/mL. The diluted samples were loaded in 96-well micro titre plates. The samples were inoculated with the test culture of P. acnes so that the final concentration of the bacteria in each well is 1×10^5 CFU (CLSI, M11-A8; Vol. 32 No. 5). The plates were incubated under anaerobic conditions at 37° C. for 48 h and thereafter observed for inhibition of bacterial growth. The minimum concentration required for inhibiting the growth of P. acnes was considered as minimum inhibitory concentration (MIC).

Data set [3] can be described thus: Solubility in solvents (observed when recording NMR). The data set is classed as physicochemical. The conditions noted are these: most of the solvents except DMSO. The text has this:
In ^1H NMR spectrum, the phenolic OH (5-OH) adjacent to the carbonyl was assigned from the downfield signal at δ 13.36 ppm (70%) and 13.33 ppm (30%) and these two signals appeared due to the presence of the two conformers α and β in about 70:30 ratio. The assignment of two doublets at δ 7.15 ppm (˜30%) and 6.94 ppm (˜70%) was crucial in ^1H NMR spectrum. Nonetheless the disappearance of these two signals in D2O exchanged ^1H NMR spectrum (FIG. 5) ascertained that these two doublet signals are nothing but appeared due to the presence of the hydroxyl group (14-OH) sustaining powerful coupling with anomeric proton (14-H). Thus the signals at δ 7.15 ppm (d, ˜30%, β-OH, J=7.5 Hz) and at 6.94 ppm (d, ˜70%, α-OH, J=4.2 Hz) were assigned corresponding to the anomeric 14-OH. Similarly, though the anomeric proton (14-H) was expected to appear as a doublet however owing to further coupling with 14-OH, it appeared as two signals one as double doublets at δ 5.32 ppm (dd, ˜70%, 14-α-H, J=4.2 Hz, 2.1 Hz) and another one as triplet at 4.87 ppm (t, ˜30%, 14-β-H, J=7.8 Hz). The coupling interferences in 14-α/β-H due to 14-OH was disappeared in D2O exchanged ^1H NMR spectrum (FIG. 5) and signals were clearly appeared as doublets at δ 5.28 (d, ˜70%, 14-α-H, J=1.2 Hz) and 4.81 ppm (d, ˜30%, 14-β-H, J=8.7 Hz). As expected the signals ratio ˜70:30 were reflected in the ^13C NMR spectrum also. […]

Each structure is given as a SMILES string. ≈ marks a conversion by molar mass, not a printed value.

With `CC(C)=CCc1c(-c2cc(O)c(O)cc2O)oc2c3c(cc(O)c2c1=O)OC(C)(C)C=C3` [Artonine E], the “zone of inhibition around the wells” value in data set [1] is reported as “good inhibition”. This molecule yielded an MIC in data set [2] of 2 µg/mL (≈ 4.58 µM).
In turn, `CCC[C@@H]1C[C@@H](C(=O)N[C@@H]([C@H]2O[C@H](SC)[C@H](O)[C@@H](O)[C@H]2O)[C@H](C)Cl)N(C)C1` [Clindamycin, reference compound] returned an MIC in data set [2] of 0.03 µg/mL (≈ 0.0706 µM).
On to `CC1C(O)Oc2c(O)cc(O)c3c2C1Cc1c-3oc2c3c(cc(O)c2c1=O)OC(C)(C)C=C3` (stereo not drawn) [pyranocycloartobiloxanthone A (α & β), Pyranocycloartobiloxanthone A], for which the “zone of inhibition around the wells” value in data set [1] is listed as “good inhibition”. For the same molecule, the minimum inhibitory concentration (MIC) in data set [2] amounted to 2 µg/mL (≈ 4.44 µM). The solubility result in data set [3] is recorded as “relatively poor”.

One may read the MIC as the lowest concentration found to suppress growth. Lower therefore signals inhibition by little substance.

These data come from US10898536B2, “Method of inhibiting propionibacterium acnes” (Sami Labs Limited, priority 2016, dated 2021).
